Results from PubChem BioAssay (NCI).
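Following 48 hours of exposure in 96-well plates, responses at five concentrations were used to interpolate endpoints linearly. GI50 = concentration required for 50% inhibition of growth. TGI denotes the concentration required for complete inhibition of growth.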

Assays:
Experiment in all cases: DTP human tumour cell line panel, 48 h
CCRF-CEM leukemia = system: CCRF-CEM leukemia
HCC-2998 colon = system: HCC-2998 colon
NCI-H23 lung = system: NCI-H23 lung
NCI/ADR-RES ovarian = system: NCI/ADR-RES ovarian
SK-MEL-28 melanoma = system: SK-MEL-28 melanoma
SW-620 colon = system: SW-620 colon
TK-10 renal = system: TK-10 renal
UACC-257 melanoma = system: UACC-257 melanoma
UACC-62 melanoma = system: UACC-62 melanoma
UO-31 renal = system: UO-31 renal

Row | SMILES | TGI (CCRF-CEM leukemia) [µM] | TGI (HCC-2998 colon) [µM] | TGI (NCI-H23 lung) [µM] | TGI (NCI/ADR-RES ovarian) [µM] | TGI (SK-MEL-28 melanoma) [µM] | TGI (SW-620 colon) [µM] | TGI (TK-10 renal) [µM] | TGI (UACC-257 melanoma) [µM] | TGI (UACC-62 melanoma) [µM] | TGI (UO-31 renal) [µM] | GI50 (CCRF-CEM leukemia) [nM] | GI50 (HCC-2998 colon) [nM] | GI50 (NCI-H23 lung) [nM] | GI50 (NCI/ADR-RES ovarian) [µM] | GI50 (SK-MEL-28 melanoma) [µM] | GI50 (SW-620 colon) [nM] | GI50 (TK-10 renal) [nM] | GI50 (UACC-257 melanoma) [µM] | GI50 (UACC-62 melanoma) [µM] | GI50 (UO-31 renal) [nM]
1 | COC(=O)Oc1nn(C(=O)OC)c(=O)c2ccccc12 (tested in a mixture with another compound) | > 100 | > 100 | > 100 | > 100 | > 100 | > 100 | > 100 | > 100 | > 100 | > 100 | – | – | – | – | – | – | – | – | – | –
2 | COC(=O)C1(C)CCc2c(ccc3ccccc23)C1=O (stereo not given) | > 100 | > 100 | > 100 | > 100 | > 100 | > 100 | 95.7 | 55.2 | 98.1 | > 100 | – | – | – | – | – | – | – | – | – | –
3 | O=C(/C=C/c1cccnc1)/C=C/c1cccnc1 | 0.821 | 2.19 | 6.7 | 30.6 | 4.02 | 2.48 | 10.4 | 20.3 | 5.36 | 1.89 | 199 | 846 | 2330 | 4.08 | 1.95 | 724 | 3110 | 7.63 | 1.91 | 562
4 | NC(=NCc1ccccc1)N/N=C\c1ccnc2ccccc12 | 76.3 | 4.51 | 31.7 | 35.6 | 25.1 | 31.2 | 32.1 | 8.63 | 29.4 | 22.1 | – | – | – | – | – | – | – | – | – | –
5 | COc1cc(-c2cn(-c3ccc(Cl)cc3)c(=O)n2-c2ccccc2)cc(OC)c1OC | > 100 | > 100 | > 100 | > 100 | > 100 | > 100 | > 100 | > 100 | > 100 | > 100 | > 100000 | > 56300 | > 100000 | > 92.9 | 56.4 | > 100000 | > 100000 | > 82.6 | 32.5 | 89300
6 | c1ccc(CNc2nc(Nc3ccc(-c4nc5ccccc5[nH]4)cc3)c3cn[nH]c3n2)cc1 | > 100 | 3.78 | 6.13 | 5.99 | 6.68 | 6.62 | 8.35 | 3.4 | 4.92 | 6.02 | 3620 | 1910 | 2280 | 2.22 | 2.15 | 2690 | 2930 | 1.61 | 2.13 | 2020
7 | O=C1/C(=C\c2ccccc2)CN(C(=O)c2ccccc2F)C/C1=C\c1ccccc1 | 5.62 | 3.66 | 4.84 | 19.4 | 4.05 | 3.48 | 5.75 | 4.79 | 3.41 | 3.24 | 1520 | 2110 | 2130 | 3.3 | 2.08 | 1520 | 2330 | 2.15 | 1.68 | 1530
8 | C/C(=N\NC(=S)Nc1ccccc1)c1ccccn1 | > 100 | 3.12 | 5.22 | 4.58 | 4.94 | 2.94 | 3.77 | 0.384 | 2.96 | 2.75 | < 10 | 924 | 19.1 | 0.0469 | 1.68 | 24.2 | 1020 | 0.032 | 0.264 | 56.5
9 | CCOC(=O)/C(=C/c1c(-c2ccccc2)[nH]c2ccccc12)C(=O)c1ccc(Cl)cc1 | > 100 | > 100 | > 100 | > 100 | > 100 | > 100 | > 100 | > 100 | 37.1 | > 100 | 2730 | 3940 | 3470 | 2.69 | 5.26 | 4530 | 28200 | 6.49 | 3.27 | 3860
10 | COc1cccc(C2C3=C(COC3=O)N(CCO)c3cc4c(cc32)CCC4)c1 (stereo not given) | > 50 | 1.31 | 4.02 | 0.23 | > 50 | > 50 | > 50 | > 50 | > 50 | 1.44 | 122 | 79.5 | 60.4 | 0.0556 | 13.4 | 25.2 | 2130 | 32.6 | 34.2 | 19.2
11 | COc1ccc(C2=NN(c3ccc(S(N)(=O)=O)cc3)C(c3ccc(Cl)cc3)C2)c(O)c1 (stereo not given) | 6.92 | 5.37 | 13.7 | 21.1 | 18.1 | 14.8 | 9.02 | 42 | 19.7 | 13.5 | 2390 | 2620 | 3320 | 3.98 | 5.06 | 3680 | 2490 | 6.84 | 5.89 | 1970
12 | COc1ccc(C(NCCNC(c2ccc(OC)c(OC)c2)c2cc3c(cc2O)OCO3)c2cc3c(cc2O)OCO3)cc1OC (stereo not given) | 0.86 | – | 9.3 | 8.27 | 3.55 | 3.86 | 12.7 | 9.97 | 7.52 | 8.27 | – | – | – | – | – | – | – | – | – | –
13 | C#CCSc1nnnn1-c1ccc(Br)c(C)c1 | > 100 | > 100 | 88.6 | 72.7 | > 100 | 52.1 | > 100 | > 100 | 91.2 | – | 29500 | 33800 | 21500 | 17.4 | 50.1 | 19100 | 35400 | 35.2 | 18.3 | –
14 | Cn1cc(-c2nonc2-c2cn(C)c3ccc(Br)cc23)c2ccccc21 | > 100 | > 100 | > 100 | > 100 | > 100 | > 100 | > 100 | – | > 100 | > 100 | 3370 | 5450 | 4720 | 3.19 | > 100 | 2530 | 5330 | – | 3.37 | 3390
